Values of other authors in patent US6793912B2, “Treatment of cancers by inhalation of stable platinum-containing formulations” (Transave Inc., priority 2001, dated 2004).

Details: administered by inhalation vs intravenously

N.N.[Cl][Pt][Cl] [Cisplatin, cis-diamminedichloroplatinum(II)]
dose required to elicit a response in animal models, more effective in the lung than intravenously: 10-100 fold
